Key:
Assay type in all cases: functional
Escherichia coli = test: Antimicrobial activity against Escherichia coli ATCC 25922 after 24 hr by broth dilution method; conditions: ATCC 25922, 24 h
Trichophyton longifusum = test: Antimicrobial activity against Trichophyton longifusum ATCC 22397 after 24 hr by broth dilution method; conditions: ATCC 22397, 24 h
Proteus vulgaris = test: Antimicrobial activity against Proteus vulgaris ATCC 13315 after 24 hr by broth dilution method; conditions: ATCC 13315, 24 h
Aspergillus flavus = test: Antimicrobial activity against Aspergillus flavus ATCC 15517 after 24 hr by broth dilution method; conditions: ATCC 15517, 24 h
Rhizoctonia solani = test: Antimicrobial activity against Rhizoctonia solani ATCC 76131 after 24 hr by broth dilution method; conditions: ATCC 76131, 24 h
Fusarium solani = test: Antimicrobial activity against Fusarium solani ATCC 38136 after 24 hr by broth dilution method; conditions: ATCC 38136, 24 h
Micrococcus luteus = test: Antimicrobial activity against Micrococcus luteus ATCC 4698 after 24 hr by broth dilution method; conditions: ATCC 4698, 24 h
Bacillus pumilus = test: Antimicrobial activity against Bacillus pumilus ATCC 14884 after 24 hr by broth dilution method; conditions: ATCC 14884, 24 h
Bacillus cereus = test: Antimicrobial activity against Bacillus cereus ATCC 11778 after 24 hr by broth dilution method; conditions: ATCC 11778, 24 h
Bacillus spizizenii = test: Antimicrobial activity against Bacillus subtilis subsp. spizizenii ATCC 6633 after 24 hr by broth dilution method; conditions: ATCC 6633, 24 h
Klebsiella pneumoniae = test: Antimicrobial activity against Klebsiella pneumoniae ATCC 13883 after 24 hr by broth dilution method; conditions: ATCC 13883, 24 h
Aspergillus niger = test: Antimicrobial activity against Aspergillus niger ATCC 9142 after 24 hr by broth dilution method; conditions: ATCC 9142, 24 h
Alternaria alternata = test: Antimicrobial activity against Alternaria alternata ATCC 66868 after 24 hr by broth dilution method; conditions: ATCC 66868, 24 h
Aspergillus fumigatus = test: Antimicrobial activity against Aspergillus fumigatus after 24 hr by broth dilution method
Proteus mirabilis = test: Antimicrobial activity against Proteus mirabilis ATCC 49565 after 24 hr by broth dilution method; conditions: ATCC 49565, 24 h
Candida albicans = test: Antimicrobial activity against Candida albicans ATCC 10231 after 24 hr by broth dilution method; conditions: ATCC 10231, 24 h
Trichoderma viride = test: Antimicrobial activity against Hypocrea rufa ATCC 52440 after 24 hr by broth dilution method; conditions: ATCC 52440, 24 h
[1] = tested on: Staphylococcus epidermidis; test: Antimicrobial activity against Staphylococcus epidermidis ATCC 12228 after 24 hr by broth dilution method; conditions: ATCC 12228, 24 h
Pseudomonas aeruginosa = test: Antimicrobial activity against Pseudomonas aeruginosa ATCC 10145 after 24 hr by broth dilution method; conditions: ATCC 10145, 24 h
Staphylococcus hominis = test: Antimicrobial activity against Staphylococcus hominis ATCC 27844 after 24 hr by broth dilution method; conditions: ATCC 27844, 24 h
Salmonella typhi = test: Antimicrobial activity against Salmonella enterica subsp. enterica serovar Typhi ATCC 19430 after 24 hr by broth dilution method; conditions: ATCC 19430, 24 h
Aspergillus awamori = test: Antimicrobial activity against Aspergillus awamori ATCC 22342 after 24 hr by broth dilution method; conditions: ATCC 22342, 24 h
Microsporum canis = test: Antimicrobial activity against Arthroderma otae ATCC 11622 after 24 hr by broth dilution method; conditions: ATCC 11622, 24 h
Staphylococcus aureus = test: Antimicrobial activity against Staphylococcus aureus ATCC 25923 after 24 hr by broth dilution method; conditions: ATCC 25923, 24 h

Measured: MIC

O=C1Nc2ccc(Cl)cc2/C1=N/N1C(=O)CSC1c1ccc(Cl)cc1 (centres undefined)
37.5 µg/mL: Proteus vulgaris | Bacillus spizizenii
4.68 µg/mL: Trichophyton longifusum | Aspergillus flavus | Aspergillus niger | Alternaria alternata | Aspergillus fumigatus | Candida albicans | Microsporum canis
18.8 µg/mL: Micrococcus luteus | Klebsiella pneumoniae | Proteus mirabilis | [1] | Staphylococcus aureus
9.37 µg/mL: all other assays above

COc1cccc(C2C(Cl)C(=O)N2/N=C2\C(=O)Nc3ccc(Cl)cc32)c1 (centres undefined)
75 µg/mL: Escherichia coli | Proteus vulgaris | Bacillus pumilus | Bacillus spizizenii | Proteus mirabilis | Staphylococcus hominis | Salmonella typhi | Staphylococcus aureus
18.8 µg/mL: Trichophyton longifusum | Aspergillus flavus | Rhizoctonia solani | Alternaria alternata | Aspergillus fumigatus | Candida albicans
37.5 µg/mL: all other assays above

O=C1Nc2ccc(Cl)cc2/C1=N/N1C(=O)CSC1c1ccccc1O (centres undefined)
300 µg/mL: Escherichia coli | Klebsiella pneumoniae | Proteus mirabilis | [1] | Pseudomonas aeruginosa | Staphylococcus aureus
75 µg/mL: Aspergillus flavus | Alternaria alternata | Candida albicans | Microsporum canis
150 µg/mL: all other assays above

CN(C)c1ccc(C2C(Cl)C(=O)N2/N=C2\C(=O)Nc3ccc(Cl)cc32)cc1 (centres undefined)
4.68 µg/mL: Trichophyton longifusum | Aspergillus flavus | Alternaria alternata | Aspergillus fumigatus | Candida albicans | Trichoderma viride | Microsporum canis
18.8 µg/mL: Micrococcus luteus | Bacillus cereus | Bacillus spizizenii | Proteus mirabilis | Staphylococcus hominis | Staphylococcus aureus
9.37 µg/mL: all other assays above

O=C1Nc2ccc(Cl)cc2/C1=N/N1C(=O)C(Cl)C1c1ccc([N+](=O)[O-])cc1 (centres undefined)
18.8 µg/mL: Escherichia coli | [1] | Staphylococcus hominis | Staphylococcus aureus
4.68 µg/mL: Aspergillus flavus | Aspergillus niger | Alternaria alternata | Candida albicans | Microsporum canis
9.37 µg/mL: all other assays above

COc1cccc(C2SCC(=O)N2/N=C2\C(=O)Nc3ccc(Cl)cc32)c1 (centres undefined)
75 µg/mL: Escherichia coli | Micrococcus luteus | Bacillus pumilus | Bacillus cereus | Bacillus spizizenii | [1] | Pseudomonas aeruginosa | Salmonella typhi
18.8 µg/mL: Aspergillus flavus | Rhizoctonia solani | Fusarium solani | Alternaria alternata | Candida albicans | Trichoderma viride | Microsporum canis
37.5 µg/mL: all other assays above

Reference: ChEMBL document CHEMBL3046063, “Synthesis and antimicrobial activity of 5-chloroindoline-2,3-dione derivatives” (2012)
